Measured values: the supplement of paper PMC9265050, “Inhibition of RNA Binding in SND1 Increases the Levels of miR-1-3p and Sensitizes Cancer Cells to Navitoclax” (Cancers, 2022)

Tested on: SW480
Experiment: drug sensitivity score (DSS, integrated dose-response area); higher = more sensitive (stronger viability reduction); extreme values may be limits of the assay
In short: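 The drug sensitivity score is the integrated area under a fitted non-linear dose–response model. It was derived from SW480 cells with doxycycline-inducible control or SND1-targeting shRNA, induced with 0.1 µg/mL doxycycline for 7 days and plated at 1000 cells per well on 384-well plates of 525 commercially available small-molecule inhibitors at five concentrations. CellTiter-Glo measured viability after 72 h.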

[1] = shRNA: SND1 shRNA1 (SND1 silenced)
[2] = shRNA: SND1 shRNA2 (SND1 silenced)
[3] = shRNA: control shRNA (non-targeting)

Row | SMILES | drug sensitivity score [1] | drug sensitivity score [2] | drug sensitivity score [3]
1 | C[C@@H]1C=C2C(=O)O[C@@H]3CC[C@H](C1)[C@]23O [Galiellalactone] | 3.8 DSS | 4.2 DSS | 3.4 DSS
2 | Cc1cccc(-c2nn3c(c2-c2ccnc4ccc(C(N)=O)cc24)CCC3)n1 [Galunisertib] | 0 DSS | 0 DSS | 0 DSS
3 | Cc1cc(Nc2cc(CN3CCOCC3)c3nc(C)c(Cc4ccc(Cl)cc4F)n3n2)n[nH]1 [Gandotinib] | 6.9 DSS | 4.1 DSS | 7 DSS
4 | CC(C)c1cc(-c2n[nH]c(=O)n2-c2ccc3c(ccn3C)c2)c(O)cc1O [Ganetespib] | 12.7 DSS | 12.5 DSS | 13.9 DSS
5 | CN(C)C1CCN(C(=O)c2ccc(NC(=O)Nc3ccc(-c4nc(N5CCOCC5)nc(N5CCOCC5)n4)cc3)cc2)CC1 [Gedatolisib] | 4.2 DSS | 9.6 DSS | 10.3 DSS
6 | COc1cc2ncnc(Nc3ccc(F)c(Cl)c3)c2cc1OCCCN1CCOCC1 [Gefitinib] | 3.6 DSS | 6.6 DSS | 3.7 DSS
7 | Nc1ccn([C@@H]2O[C@H](CO)[C@@H](O)C2(F)F)c(=O)n1 [Gemcitabine] | 15.8 DSS | 6.1 DSS | 13.4 DSS
8 | CCN(CC)Cc1ccc2cc(COC(=O)Nc3ccc(C(=O)NO)cc3)ccc2c1 [Givinostat] | 6.6 DSS | 7.3 DSS | 6.7 DSS
9 | CN1CC[C@@H](NC(=O)Nc2ccc(C#N)cc2)C[C@@H]1c1nc2ccccc2[nH]1 [Glasdegib] | 0 DSS | 0 DSS | 5.6 DSS
10 | CN1CCN(C2CCN(C(=O)Nc3cc(Oc4ccc(NC(=O)C5(C(=O)Nc6ccc(F)cc6)CC5)c(F)c4)ccn3)CC2)CC1 [Golvatinib] | 0 DSS | 2.2 DSS | 0 DSS
11 | CC(C)C[C@H](NC(=O)[C@@H](COC(C)(C)C)NC(=O)[C@H](Cc1ccc(O)cc1)NC(=O)[C@H](CO)NC(=O)[C@H](Cc1c[nH]c2ccccc12)NC(=O)[C@H](Cc1cnc[nH]1)NC(=O)[C@@H]1CCC(=O)N1)C(=O)N[C@@H](CCCNC(=N)N)C(=O)N1CCC[C@H]1C(=O)NNC(N)=O [Goserelin] | 0 DSS | 0 DSS | 0 DSS
12 | O=S(=O)(c1cccc2c(O)nccc12)N1CCCNCC1 [Hydroxyfasudil] | 1.6 DSS |  | 3.5 DSS
13 | NC(=O)NO [Hydroxyurea] | 0 DSS | 0 DSS | 0.2 DSS
14 | COc1cc2c(cc1-c1c(C)noc1C)ncc1[nH]c(=O)n([C@H](C)c3ccccn3)c12 [I-BET151] | 1.4 DSS | 0.5 DSS | 2.4 DSS
15 | O=C(O)c1ccc(O)c2ncccc12 [IOX-1] | 1.7 DSS | 1.1 DSS | 0.7 DSS
16 | O=C(O)CNC(=O)c1c(O)c2ccccc2n(Cc2ccccc2)c1=O [IOX-2] | 5 DSS | 2.3 DSS | 6.2 DSS
17 | C=CC(=O)N1CCC[C@@H](n2nc(-c3ccc(Oc4ccccc4)cc3)c3c(N)ncnc32)C1 [Ibrutinib] | 0 DSS | 0.6 DSS | 0 DSS
18 | C#Cc1cccc(Nc2ncnc3cc4c(cc23)OCCOCCOCCO4)c1 [Icotinib] | 1.1 DSS | 3.8 DSS | 1.1 DSS
19 | CC(=O)[C@]1(O)Cc2c(O)c3c(c(O)c2[C@@H](O[C@H]2C[C@H](N)[C@H](O)[C@H](C)O2)C1)C(=O)c1ccccc1C3=O [Idarubicin] | 11.6 DSS | 9 DSS | 9.4 DSS
20 | COc1cc(C(=O)O)ccc1NC(=O)[C@@H]1N[C@@H](CC(C)(C)C)[C@](C#N)(c2ccc(Cl)cc2F)[C@H]1c1cccc(Cl)c1F [Idasanutlin] | 0 DSS | 0.3 DSS | 0.9 DSS
21 | CC[C@H](Nc1ncnc2[nH]cnc12)c1nc2cccc(F)c2c(=O)n1-c1ccccc1 [Idelalisib] | 2.3 DSS | 4.6 DSS | 0.7 DSS
22 | O=P1(NCCCl)OCCCN1CCCl (stereo not given) [Ifosfamide] | 0 DSS | 0 DSS | 0 DSS
23 | Cc1ccc(NC(=O)c2ccc(CN3CCN(C)CC3)cc2)cc1Nc1nccc(-c2cccnc2)n1 [Imatinib] | 0.7 DSS | 1.4 DSS | 2.5 DSS
24 | CC(C)Cn1cnc2c(N)nc3ccccc3c21 [Imiquimod] | 0.9 DSS | 0.1 DSS | 3.5 DSS
25 | O=C(Nc1ccncc1)C(=O)c1cn(Cc2ccc(Cl)cc2)c2ccccc12 [Indibulin] | 8.8 DSS | 7.7 DSS | 8.8 DSS

Row | SMILES | drug sensitivity score [1] | drug sensitivity score [2] | drug sensitivity score [3]
26 | NC(=O)c1ccc(I)c([N+](=O)[O-])c1 [Iniparib] | 0.4 DSS | 0.1 DSS | 0 DSS
27 | CC(C)NC[C@@H](C(=O)N1CCN(c2ncnc3c2[C@H](C)C[C@H]3O)CC1)c1ccc(Cl)cc1 [Ipatasertib] | 3.5 DSS | 9.7 DSS | 5.9 DSS
28 | CCc1c2c(nc3ccc(OC(=O)N4CCC(N5CCCCC5)CC4)cc13)-c1cc3c(c(=O)n1C2)COC(=O)[C@]3(O)CC [Irinotecan] | 3.2 DSS | 1.6 DSS | 5.5 DSS
29 | CCC(C)n1ncn(-c2ccc(N3CCN(c4ccc(OCC5COC(Cn6cncn6)(c6ccc(Cl)cc6Cl)O5)cc4)CC3)cc2)c1=O (stereo not given) [Itraconazole] | 4.2 DSS | 0.2 DSS | 1.5 DSS
30 | C/C(=C\c1csc(C)n1)[C@@H]1C[C@@H]2O[C@]2(C)CCC[C@H](C)[C@H](O)[C@@H](C)C(=O)C(C)(C)[C@@H](O)CC(=O)N1 [Ixabepilone] | 3 DSS | 2.7 DSS | 2.5 DSS
31 | CCCNC(=O)Nc1ccc(Oc2ncnc3cc(OC)c(OC)cc23)cc1Cl [KRN-633] | 0 DSS | 0.4 DSS | 0.6 DSS
32 | O=C(c1ccc(/C=C/c2n[nH]c3ccccc23)cc1)N1CCNCC1 [KW-2449] | 0.7 DSS | 0 DSS | 0.2 DSS
33 | O=C(Cc1ccc(-c2ccc(OCCN3CCOCC3)cc2)cn1)NCc1ccccc1 [KX2-391] | 15 DSS | 17.4 DSS | 18.9 DSS
34 | CN[C@@H](C)C(=O)N[C@H](C(=O)N1CCC[C@H]1c1nc(C(=O)c2ccc(F)cc2)cs1)C1CCCCC1 [LCL161] | 0.2 DSS | 0 DSS | 0.5 DSS
35 | CS(=O)(=O)CCNCc1ccc(-c2ccc3ncnc(Nc4ccc(OCc5cccc(F)c5)c(Cl)c4)c3c2)o1 [Lapatinib] | 0 DSS | 0 DSS | 0.9 DSS
36 | Oc1ccc2c(c1)CC[C@H](c1ccccc1)[C@@H]2c1ccc(OCCN2CCCC2)cc1 [Lasofoxifene] | 0.8 DSS | 0.7 DSS | 2 DSS
37 | Nc1cccc2c1CN(C1CCC(=O)NC1=O)C2=O (stereo not given) [Lenalidomide] | 0 DSS | 0.1 DSS | 2.3 DSS
38 | COc1cc2nccc(Oc3ccc(NC(=O)NC4CC4)c(Cl)c3)c2cc1C(N)=O [Lenvatinib] | 1.8 DSS | 1.3 DSS | 2.1 DSS
39 | C[C@]12O[C@H](C[C@]1(O)CO)n1c3ccccc3c3c4c(c5c6ccccc6n2c5c31)CNC4=O [Lestaurtinib] | 6.8 DSS | 7.1 DSS | 8.3 DSS
40 | N#Cc1ccc(C(c2ccc(C#N)cc2)n2cncn2)cc1 [Letrozole] | 0 DSS | 0 DSS | 0.1 DSS
41 | c1ccc([C@H]2CN3CCSC3=N2)cc1 [Levamisole] | 0 DSS | 0 DSS | 0 DSS
42 | Cc1ccc(F)c(NC(=O)Nc2ccc(-c3cccc4[nH]nc(N)c34)cc2)c1 [Linifanib] | 0 DSS | 0 DSS | 0 DSS
43 | C[C@]1(O)C[C@@H](c2nc(-c3ccc4ccc(-c5ccccc5)nc4c3)c3c(N)nccn32)C1 [Linsitinib] | 0 DSS | 0.1 DSS | 0.2 DSS
44 | Nc1nc(OCc2cc(Br)cs2)c2[nH]cnc2n1 [Lomeguatrib] | 0 DSS | 1.9 DSS | 0.5 DSS
45 | O=NN(CCCl)C(=O)NC1CCCCC1 [Lomustine] | 0 DSS | 0 DSS | 0 DSS
46 | NC(=O)N1CCC(CC(=O)N2CCC([C@H]3c4ncc(Br)cc4CCc4cc(Cl)cc(Br)c43)CC2)CC1 [Lonafarnib] | 6.9 DSS | 8.8 DSS | 4.9 DSS
47 | Cc1c(F)cc(C(=O)NC2CC2)cc1-c1ccc(C(=O)NCC(C)(C)C)cn1 [Losmapimod] | 0 DSS | 0 DSS | 0 DSS
48 | CC[C@H](C)C(=O)O[C@H]1C[C@@H](C)C=C2C=C[C@H](C)[C@H](CC[C@@H]3C[C@@H](O)CC(=O)O3)[C@H]21 [Lovastatin] | 0 DSS |  | 0 DSS
49 | CNC(=O)c1cccc2cc(Oc3ccnc4cc(OCC5(N)CC5)c(OC)cc34)ccc12 [Lucitanib] | 2.3 DSS | 0.6 DSS | 3 DSS
